Laboratory results as given in the supplement of paper PMC10307832.

How the values were obtained:
Experiment in all cases: relative viability (nuclei count vs DMSO), 5 days (fraction); higher = more cells survive
RAF265 + Crizotinib = compound: Cn1c(Nc2ccc(C(F)(F)F)cc2)nc2cc(Oc3ccnc(-c4ncc(C(F)(F)F)[nH]4)c3)ccc21 [RAF265] + C[C@@H](Oc1cc(-c2cnn(C3CCNCC3)c2)cnc1N)c1c(Cl)ccc(F)c1Cl [Crizotinib] (partner 1 µM)
Outline: (§1)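 Five library-drug doses in √10 steps were combined with a fixed anchor-drug dose, or a single drug was given alone, by pin tool to lung cancer cell lines in 1536-well plates the day after seeding. Nuclei were stained and counted after 5 days. Relative viability is the nuclei count in treated wells over that in vehicle wells, taken as the median of duplicate plates.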

RAF265 + OSI-027 = compound: Cn1c(Nc2ccc(C(F)(F)F)cc2)nc2cc(Oc3ccnc(-c4ncc(C(F)(F)F)[nH]4)c3)ccc21 [RAF265] + COc1cccc2cc(-c3nc([C@H]4CC[C@H](C(=O)O)CC4)n4ncnc(N)c34)[nH]c12 [OSI-027] (partner 0.5 µM)
Outline: as §1

IPA-3 + Vorinostat = compound: C1=CC=C2C(=C1)C=CC(=C2SSC3=C(C=CC4=CC=CC=C43)O)O [IPA-3] + O=C(CCCCCCC(=O)Nc1ccccc1)NO [Vorinostat] (partner 1 µM)
Outline: as §1

Cell Line | relative viability (RAF265 + Crizotinib; first compound 0.01 µM) | relative viability (RAF265 + Crizotinib; first compound 0.03162 µM) | relative viability (RAF265 + Crizotinib; first compound 0.1 µM) | relative viability (RAF265 + Crizotinib; first compound 0.3162 µM) | relative viability (RAF265 + Crizotinib; first compound 1 µM) | relative viability (RAF265 + OSI-027; first compound 0.01 µM) | relative viability (RAF265 + OSI-027; first compound 0.03162 µM) | relative viability (RAF265 + OSI-027; first compound 0.1 µM) | relative viability (RAF265 + OSI-027; first compound 0.3162 µM) | relative viability (RAF265 + OSI-027; first compound 1 µM) | relative viability (IPA-3 + Vorinostat; first compound 0.2 µM) | relative viability (IPA-3 + Vorinostat; first compound 0.6325 µM) | relative viability (IPA-3 + Vorinostat; first compound 2 µM) | relative viability (IPA-3 + Vorinostat; first compound 6.325 µM) | relative viability (IPA-3 + Vorinostat; first compound 20 µM)
NCI-H1355 | 1.11 | 1 | 1.02 | 0.766 | 0.337 | 0.461 | 0.314 | 0.3 | 0.251 | 0.217 | 0.69 | 0.655 | 0.595 | 0.617 | 0.657
EKVX | 0.909 | 0.625 | 0.998 | 0.805 | 0.773 | 0.689 | 0.666 | 0.744 | 0.483 | 0.534 | 0.801 | 0.693 | 0.83 | 0.793 | 0.763
NCI-H441 | 0.779 | 0.656 | 0.715 | 0.73 | 0.473 | 0.612 | 0.591 | 0.454 | 0.346 | 0.351 | 0.881 | 0.637 | 0.748 | 0.731 | 0.948
NCI-H1975 | 0.894 | 0.77 | 0.679 | 0.456 | 0.451 | 0.682 | 0.601 | 0.348 | 0.261 | 0.178 | 0.791 | 0.672 | 0.712 | 0.83 | 0.831
HCC-78 | 0.337 | 0.288 | 0.381 | 0.301 | 0.359 | 0.35 | 0.424 | 0.396 | 0.346 | 0.341 | 0.464 | 0.437 | 0.476 | 0.442 | 0.489
NCI-H2085 | 0.696 | 0.886 | 0.858 | 1.05 | 0.806 | 0.948 | 0.68 | 0.841 | 0.552 | 0.83 | 0.868 | 0.756 | 0.819 | 0.726 | 0.957
H3255 | 0.928 | 0.83 | 1.12 |  | 0.671 | 0.741 | 0.601 | 0.563 |  | 0.473 | 1.05 | 0.759 | 0.801 | 0.791 | 0.967
NCI-H2087 | 0.71 | 0.7 | 0.818 | 0.637 | 0.692 | 0.653 | 0.426 | 0.426 | 0.193 | 0.334 | 0.72 | 0.841 | 0.727 | 0.668 | 0.821
LC-2-ad | 0.451 | 0.442 | 0.492 | 0.474 | 0.305 | 0.969 | 0.798 | 0.902 | 0.442 | 0.378 | 0.72 | 0.681 | 0.788 | 0.726 | 0.76
PC-3 [JPC-3] | 0.989 | 0.986 | 1.06 | 0.417 | 0.63 | 0.84 | 0.655 | 0.746 |  | 0.567 | 0.821 | 0.816 | 0.896 | 0.73 | 0.767
EBC-1 | 0.181 | 0.194 | 0.191 | 0.26 | 0.219 |  |  |  |  |  |  |  |  |  | 
HCC-15 | 0.83 | 0.817 | 0.836 | 0.566 | 0.499 | 0.674 | 0.605 | 0.566 | 0.26 | 0.304 | 0.929 | 0.937 | 0.894 | 0.804 | 0.975
NCI-H1563 | 0.88 | 0.916 | 0.849 | 0.801 | 0.824 | 0.769 | 0.772 | 0.738 | 0.706 | 0.739 |  |  |  |  | 
COR-L 105 | 0.844 | 0.689 | 0.755 | 0.503 | 0.297 | 0.798 | 0.676 | 0.608 | 0.315 | 0.43 | 1.08 | 0.543 | 0.907 | 0.995 | 0.79
NCI-H520 | 0.632 | 0.762 | 0.774 | 0.771 | 0.607 | 0.248 | 0.255 | 0.287 | 0.299 | 0.224 | 0.713 | 0.849 |  | 0.579 | 0.796
LU99A | 0.576 | 0.467 | 0.521 | 0.344 | 0.255 | 0.299 | 0.274 | 0.27 | 0.258 | 0.205 | 0.642 | 0.4 | 0.459 | 0.461 | 0.379
NCI-H1666 | 1.11 | 1.08 | 1.06 | 0.971 | 0.651 | 0.89 | 0.716 | 0.774 | 0.739 | 0.598 | 1.07 | 1.06 | 1.07 | 1.04 | 1.03
NCI-H2170 | 1.22 | 1.08 | 1.09 | 0.784 | 0.771 | 0.74 | 0.512 | 0.623 | 0.333 | 0.452 | 0.87 | 0.997 | 1.04 | 0.768 | 0.901
NCI-H2342 |  |  |  |  |  | 0.598 | 0.722 | 0.598 | 0.525 | 0.514 | 0.837 | 1.03 | 0.851 | 0.91 | 0.89
LCLC-97TM1 | 0.355 | 0.274 | 0.293 | 0.181 | 0.121 | 0.516 | 0.328 | 0.215 | 0.416 | 0.0767 | 1.11 | 0.875 | 0.724 | 0.575 | 1.12
NCI-H1299 | 0.966 | 0.95 | 0.93 | 0.703 | 0.645 |  |  |  |  |  |  |  |  |  | 

Cell Line | relative viability (RAF265 + Crizotinib; first compound 0.01 µM) | relative viability (RAF265 + Crizotinib; first compound 0.03162 µM) | relative viability (RAF265 + Crizotinib; first compound 0.1 µM) | relative viability (RAF265 + Crizotinib; first compound 0.3162 µM) | relative viability (RAF265 + Crizotinib; first compound 1 µM) | relative viability (RAF265 + OSI-027; first compound 0.01 µM) | relative viability (RAF265 + OSI-027; first compound 0.03162 µM) | relative viability (RAF265 + OSI-027; first compound 0.1 µM) | relative viability (RAF265 + OSI-027; first compound 0.3162 µM) | relative viability (RAF265 + OSI-027; first compound 1 µM) | relative viability (IPA-3 + Vorinostat; first compound 0.2 µM) | relative viability (IPA-3 + Vorinostat; first compound 0.6325 µM) | relative viability (IPA-3 + Vorinostat; first compound 2 µM) | relative viability (IPA-3 + Vorinostat; first compound 6.325 µM) | relative viability (IPA-3 + Vorinostat; first compound 20 µM)
NCI-H3122 | 0.305 | 0.287 | 0.305 | 0.251 | 0.283 | 0.971 | 1.1 | 0.948 |  | 0.42 | 1.06 | 1.2 | 1.03 | 1.46 | 1.14
NCI-H1395 |  |  |  |  |  | 0.72 | 0.571 | 0.638 | 0.537 | 0.487 | 0.679 | 0.754 | 0.588 | 0.635 | 0.747
NCI-H2009 | 1.07 | 0.91 | 0.96 | 0.805 | 0.629 | 0.581 | 0.414 | 0.328 | 0.365 | 0.318 | 0.858 | 0.685 | 0.89 | 0.723 | 0.642
NCI-H1651 | 0.829 | 0.912 | 0.904 | 0.88 | 0.81 | 0.783 | 0.776 | 0.695 | 0.52 | 0.362 | 0.608 | 0.612 | 0.61 | 0.645 | 0.592
HARA | 1.1 | 0.965 | 1.03 | 0.906 | 0.652 | 0.491 | 0.417 | 0.423 | 0.187 | 0.101 | 0.48 | 0.509 | 0.421 | 0.653 | 0.447
NCI-H1944 | 1.09 | 1.26 | 1.08 | 0.794 | 0.664 | 0.516 | 0.5 | 0.357 | 0.317 | 0.237 | 0.674 | 0.492 | 0.479 | 0.574 | 0.527
NCI-H2347 | 0.699 | 0.664 | 0.504 | 0.551 | 0.287 | 0.418 | 0.341 | 0.44 | 0.35 | 0.278 | 0.768 | 0.601 | 0.634 | 0.506 | 0.638
201T | 1.08 | 0.996 | 1.05 | 1.06 | 1.08 | 0.794 | 0.799 | 0.788 | 0.58 | 0.351 | 1.04 | 0.931 | 1.01 | 0.926 | 1.13
PC-14 | 0.872 | 0.818 | 0.995 |  | 0.68 | 0.813 | 0.734 | 0.787 |  | 0.48 | 0.952 | 0.759 | 0.616 | 0.68 | 0.747
Calu-6 | 0.73 | 0.709 | 0.658 | 0.529 | 0.276 |  |  |  |  |  |  |  |  |  | 
NCI-H1703 | 0.567 | 0.512 | 0.581 | 0.449 | 0.195 |  |  |  |  |  |  |  |  |  | 
NCI-H1650 | 1.03 | 0.83 | 1.15 | 0.877 | 0.913 | 0.631 | 0.598 | 0.8 | 0.456 | 0.649 | 1.02 | 0.47 | 0.531 | 0.555 | 0.729
NCI-H727 | 0.8 | 0.727 | 0.967 | 0.598 | 0.283 | 0.7 | 0.8 | 0.487 | 0.438 | 0.347 | 1.25 | 1.01 | 1.27 | 1.07 | 1.2
NCI-H1648 |  |  |  |  |  | 0.266 | 0.298 | 0.277 | 0.3 | 0.246 | 0.876 | 0.484 | 0.589 | 0.34 | 0.399
NCI-H1792 | 1.01 | 0.989 | 0.977 | 0.839 | 0.419 | 0.681 | 0.691 | 0.72 | 0.444 | 0.25 |  |  |  |  | 
NCI-H1623 |  |  |  |  |  | 0.462 | 0.43 | 0.467 | 0.291 | 0.364 |  |  |  |  | 
NCI-H522 |  |  |  |  |  | 0.79 | 0.741 | 0.655 | 0.541 | 0.628 | 0.879 | 0.897 | 0.854 | 0.894 | 1.06
SW 900 |  |  |  |  |  | 0.569 | 0.661 | 0.464 | 0.378 | 0.391 | 0.609 | 0.531 | 0.641 | 0.654 | 0.481
NCI-H1793 |  |  |  |  |  | 0.308 | 0.297 | 0.224 |  | 0.188 | 1.12 | 0.714 | 0.64 | 0.712 | 0.687
IA-LM | 0.711 | 0.646 | 0.803 | 0.768 | 0.642 |  |  |  |  |  | 1.06 | 0.922 | 0.925 | 0.891 | 1.15
A549 | 0.72 | 0.656 | 0.677 | 0.511 | 0.36 |  |  |  |  |  |  |  |  |  | 
